Columns and labels:
[1] = test system: fibrocytes from explanted human anterior cruciate ligament (ACL) specimens; assay: Effects of relaxin-2 antagonist / receptor antagonist on cultured ACL cells from patients with ACL reconstruction (RT-PCR); assay type: cell-based; conditions: Folic Acid 10 μg/ml, NADH 100 μg/ml
Procedure: Measurements of expressions of MMP13, collagen 1A, collagen 3A, MMP3, and MMP1 in patient ACL tissues were conducted (FIG. 5). Biopsy tissues of the ACL from 20 patients (10 male and 10 female) who underwent surgeries for ACL reconstruction were harvested. The patients' ages ranged from 16 to 61 years, with equal numbers of males and females. The protocol for patient enrollment was approved by the IRB committee at our institution. […] After treatment, cells were lysed and analyzed for the expressions of type I collagen, type III collagen, MMP1, MMP3, and MMP13 using quantitative real-time polymerase chain reaction (RT-PCR). MMP13 expression (FIG. 5A); collagen 1A expression (FIG. 5B); collagen 3A expression (FIG. 5C); MMP3 expression (FIG. 5D); and MMP1 expression (FIG. 5E), all present the innovation. The protocol for patient enrollment was approved by the IRB committee at Rhode Island Hospital. GraphPad PRISM 8 software was used to perform all statistical analyses. Results were presented as mean+standard error of the mean (SEM) of different samples and considered significant when p<0.05. A t-test was used to compare any two groups, *p<0.05, **p<0.01, ***p<0.001 compared to their individual control group; ##p<0.01, compared to their individual relaxin-2 group.
Measurements of expressions of MMP13, collagen 1A, collagen 3A, MMP3, and MMP1 in patient ACL tissues were conducted (FIG. 5). Biopsy tissues of the ACL from 20 patients (10 male and 10 female) who underwent surgeries for ACL reconstruction were harvested. The patients' ages ranged from 16 to 61 years, with equal numbers of males and females. The protocol for patient enrollment was approved by the TRB committee at our institution.
After treatment, cells were lysed and analyzed for the expressions of type I collagen, type III collagen, MMP1, MMP3, and MMP13 using quantitative real-time polymerase chain reaction (RT-PCR). FIG. 5 provides expressions of MMP13, collagen 1A, collagen 3A, MMP3, and MMP1 in patient ACL tissues. (FIG. 5A) MMP13 expression; (FIG. 5B) collagen 1A expression; (FIG. 5C) collagen 3A expression; (FIG. 5D) MMP3 expression; (FIG. 5E) MMP1 expression. In FIG. 5, the protocol for patient enrollment was approved by the IRB committee at Rhode Island Hospital. GraphPad PRISM 8 software was used to perform all statistical analyses. Results were presented as mean+standard error of the mean (SEM) of different samples, and considered significant when p<0.05. A t-test was used to compare any two groups, *p<0.05, **p<0.01, ***p<0.001 compared to their individual control group; ##p<0.01, compared to their individual relaxin-2 group.

patient ACL cells [2] = assay: MMP gene expression (quantitative real-time RT-PCR) in cultured patient ACL cells treated with relaxin-2; assay type: cell-based, human
Procedure: Methods: Biopsy tissues of the ACL in the knee were collected from 20 patients with ACL reconstruction (ages ranging from 16 years to 61 years old, 10 males and 10 females). The normal ACLs were obtained from the rejected human knee osteochondral grafts from the Musculoskeletal Transplant Foundation (MTF) or the donors from MedCure (ages ranging from 24 years to 84 years old, 4 male and 4 females) were used as control samples. Immunohistochemistry was performed to detect the expression of RXFP2 and apoptosis. The number of RXFP2 positive and apoptotic positive cells were counted from six different fields for each patient. ACL cells were cultured in vitro, then cells were treated with relaxin-2 at different concentrations. After treatment, cells were lysed and analyzed for the expressions of MMP1 and MMP13 using quantitative real-time polymerase chain reaction. The protocol for patient enrollment was approved by the IRB committee at Rhode Island Hospital. GraphPad PRISM 8 software was used to perform all statistical analyses. Results were presented as mean±standard error of the mean (SEM) of different samples. Data were examined by one-way analysis of variance (ANOVA) with Tukey post-hoc multiple comparison. An unpaired t-test was used to compare any two groups. A value of p<0.05 was considered to be statically significant.
Patient ACL tissues were minced and digested with 1.0 mg/mL of type II collagenase at 37° C. at 5% CO2 in 2 mL Dulbecco's modified Eagle medium F12 (DMEM/F12, Gibco) containing 1% antibiotic-antimycotic (Gibco) for 12 hours. ACL cells were then filtered through a […] nylon mesh filter and collected by centrifugation. ACL cells were plated at a density of 1×10^5 cells/cm^2 in DMEM/F12 media supplemented with 10% fetal bovine serum (FBS, Gibco) and 1% antibiotic-antimycotic in 20 cm petri dishes for passage one. The media was changed twice a week. […]
RNA was isolated using TRIzol reagent and RNeasy Mini Kit from cultured ACL cells. RNA concentrations and purity were evaluated using a Nanodrop spectrophotometer (Thermo Scientific, Wilmington, DE, USA). A total of 1 μg of sample RNA was reverse transcribed using the Quantitect RT Kit (Qiagen, cDNA was synthesized from RNA using the iScript cDNA synthesis kit (Bio-Rad). RNA concentrations and purity were evaluated using a Nanodrop spectrophotometer (Thermo Scientific, Wilmington, DE, USA). Exactly 500 ng DNA was used as the template for real-time PCR analyses. Quantitative PCR reactions were performed using SYBR Green Fast Mix in a Bio-Rad real-time PCR machine. All Taqman primer and probe mixes were from Thermo Fisher Scientific (Waltham, MA, USA). Changes in the gene expressions of MMP1 and MMP13 were measured, which were normalized to GAPDH.

patient ACL cells [3] = assay: cAMP level (ELISA) in patient ACL cells after relaxin-2 treatment; assay type: cell-based, human; conditions: male and female ACL cells
Procedure: The detection of cAMP in samples was conducted using Abcam's cAMP Complete in vitro competitive Enzyme-Linked Immunosorbent Assay (ELISA) kit. Patient samples were first thawed from −80° C. and added to a 10% protease inhibitor in RIPA buffer (Thermo Scientific) solution for cell lysis. Each sample was then pipetted up and down 10 times with a syringe every 10 minutes over the course of 30 minutes. Next, the samples were centrifuged at 14,000 RPM for 5 minutes. The supernatant was then extracted from the pellet and stored at −80° C.
Following cell lysis and supernatant extraction, the total protein concentration of the samples was determined using a BCA protein assay. Albumin standards were prepared with the RIPA buffer and protease inhibitor. […] Standards and samples were then loaded in a 96 well plate with BCA reagent and was read in a plate reader at 570 nm to determine overall protein concentrations in samples. The concentrations of cAMP were determined using Abcam's ELISA kit. […] Stop solutions were added, and the plate was read at 405 nm with correction between 570 nm and 590 nm to determine cAMP concentrations. cAMP concentrations in pmol/mg were calculated by dividing the cAMP concentrations in pmol/mL by the total protein concentrations from the BCA protein assay in mg/mL.

[4] = 48 hour intravenous infusion, 30 μg/kg/day; compared with placebo group; cited from earlier work
ACL cells = assay: Vitamin D effects on type I collagen and MMP13 gene expression in cultured ACL cells from patients (RT-PCR); assay type: cell-based, human; conditions: 3 days; for Type I collagen expression: vitamin D 1, 10 and 100 nmol/L
Procedure: Biopsy tissues of the ACL in the knee were collected from 20 patients with ACL reconstruction (ages ranging from 16 years to 61 years old, 10 males and 10 females). The ACL cells were cultured in vitro and treated with vitamin D at different concentrations for 3 days. Cells were then lysed and analyzed for expressions of type I collagen and MMP13 genes using quantitative real-time polymerase chain reaction. The protocol for patient enrollment was approved by the IRB committee at Rhode Island Hospital. GraphPad PRISM 8 software was used to perform all statistical analyses. Results were presented as mean±standard error of the mean (SEM) of different samples and considered significant when p<0.05. A t-test was used to compare any two groups. See Appendix II for data and further discussion.

[5] = male ACL cells, relaxin-2 treatments vs control groups

Q: For `Nc1nc2ncc(CNc3ccc(C(=O)N[C@@H](CCC(=O)O)C(=O)O)cc3)nc2c(=O)[nH]1` [Folic acid], which MMP-13 expression [1] is on record?
A: significant decrease

Q: What about the “collagen 1A expression” value [1] of the same compound?
A: significant increases

Q: What about the “collagen 3A expression” value [1] of the same compound?
A: significant increases

Q: With `NC(=O)C1=CN([C@@H]2O[C@H](COP(=O)(O)OP(=O)(O)OC[C@H]3O[C@@H](n4cnc5c(N)ncnc54)[C@H](O)[C@@H]3O)[C@@H](O)[C@H]2O)C=CC1` [NADH, nicotinamide adenine dinucleotide hydride] as the compound, how does the MMP-13 expression [1] read?
A: significant decrease

Q: And the “collagen 1A expression” value [1]?
A: significant increases

Q: What about the “collagen 3A expression” value [1] of the same compound?
A: significant increases

Q: Which results are given for relaxin-2?
A: MMP13 expression (patient ACL cells [2]; female ACL cells, 10 ng/mL of relaxin-2, vs untreated controls): increased; MMP1 expression (patient ACL cells [2]; female ACL cells, 100 ng/mL of relaxin-2, vs untreated controls): increased; MMP1 expression (patient ACL cells [2]; [5]): didn't significant change; MMP3 expression (patient ACL cells [2]; [5]): didn't significant change; cAMP levels (patient ACL cells [3]): couldn't change

Q: For serelaxin, which 180-day mortality [4] is on record?
A: improvement

Q: What about the short-term dyspnea scores [4] of the same compound?
A: improvement

Q: Which MMP13 gene expression (ACL cells; female cells, vitamin D 1 nmol/L) does the source give for vitamin D here?
A: increased

Q: And the MMP13 gene expression (ACL cells; female cells, vitamin D 10 nmol/L)?
A: reduced

Q: What about the “Type I collagen expression” value (ACL cells; female cells) of the same compound?
A: increased

Q: And the MMP13 gene expression (ACL cells; male cells, vitamin D 1 nmol/L)?
A: increased

Q: And the MMP13 gene expression (ACL cells; male cells, vitamin D 100 nmol/L)?
A: reduced

Q: And the “Type I collagen expression” value (ACL cells; male cells)?
A: not observed

— patent publication US20240398819A1 (Rhode Island Hospital, priority 2023, published 2024)
